“Also recorded” adds a separate entry of the source.
Legend:
[1] = test system: plasmid DNA [pGEM 3Zf(−)]; assay: Agarose gel electrophoresis of ionizing-radiation-induced damage to plasmid DNA; assay type: biochemical, Escherichia Coli JM 109; settings: 200 μM compound; two-UV-photon ionizing radiation of water; versus pure water
Excerpt: Ultrapure water for life science with a resistivity of >18.2 MΩ/cm and TOC<1 ppm obtained freshly from a Barnstead Nanopure water system was used. Dibromo-diamino-benzene (Dibromo-phenylenediamine, Compound B) was obtained from TCI-America, while other chemicals and buffer compositions were obtained from Sigma-Aldrich. Plasmid DNA [pGEM 3Zf(−), […]] was extracted from Escherichia Coli JM 109 and purified using QIAprep Kit (Qiagen).
The pump beam at 322 nm, identical to that for fs-TRLS measurements, was used to produce radicals via two-photon excitation of water in DNA solutions. The laser beam was focused into a quartz cell containing 3.0 μg of DNA in 200 μL of buffer solutions. The solutions were stirred during irradiation to produce uniform DNA damage throughout the samples. Aliquots equivalent to 96 ng DNA were removed from the sample cell in various irradiation times for gel electrophoresis. All aliquots were analyzed with a standard agarose gel electrophoresis method, namely, on 1% neutral TAE agarose gel in TAE running buffer. The gel was prestained with 0.5 μg/ml ethidium bromide. […] They were quantified with an AlphaEase FC software.

[2] = test system: human normal cells (GM05757); assay: In vitro radiation-induced toxicity in human normal cells, MTT assay 12 days after X-ray; assay type: cell-based; settings: GM05757, 12-hr treatment, then 0-10 Gy 225 keV X-ray, MTT at 12 days
Excerpt: (§1) Dibromo-diamino-benzene (Dibromo-phenylenediamine, Compound B) was obtained from TCI-America. Diiodo-diaminobenzene (Compound C) were synthesized, purified and crystallized in our laboratory, and the structures and purity were examined by NMR and mass spectrometry. MEM and fetal bovine serum (FBS), penicillin G and streptomycin were obtained from Hyclone Laboratories (UT, USA). Stock solution of cisplatin was freshly prepared in ultrapure water or saline, and stock solutions of Compounds A, B, C, D were prepared in pure ethanol, where the final concentration of ethanol was ≦1% when treated to cells.
A human skin diploid fibroblast (GM05757 cell line) was obtained from the Coriell Cell Repository directly. Fetal bovine serum (FBS) was obtained from Hyclone Laboratories (UT, USA). The GM05757 normal cells were cultivated with MEM (Hyclone) supplemented with 10% FBS, 100 units/mL penicillin G and 100 μg/mL streptomycin (Hyclone). The cells were maintained at 37° C. in a humidified atmosphere containing 5% CO2.
The radiosensitizing effects of RSCs on cell viability were determined by the 3-[4,5-dimethylthiazol-2-yl]-2,5-diphenyl tetrazoliumbromide (MTT) assay. Cells were cultured in 96-well plates (5×10^3 cells/well) for 24 h. The culture medium was replaced by fresh culture medium and incubated for 12 h with varying drug concentrations. The cells were then irradiated by 225 kV X-ray (PRECISION X-RAD IR 225) at a dose rate of 2 Gy/min with various X-ray doses. After irradiation, the cells were incubated for 12 days. The MTT assay of cell viability was then conducted. Briefly, 100 μl new medium without phenol red containing 1.2 mM MTT (sigma) (i.e., adding 10 μl 12 mM MTT stock solution in PBS) were added to each well and incubated for 4 h. […] The surviving fraction was determined by measuring the absorbance at 540 nm (570 nm for SDS solubilization) using a Multiskan Spectrum UV/Vis microplate reader (Thermo Scientific), which is directly proportional to the number of viable cells.

[3] = test system: cisplatin-resistant human lung cancer (HTB-161) cells; assay: In vitro radiosensitizing effect, 18-day clonogenic assay; assay type: cell-based; settings: HTB-161, 12-hr treatment, 0-10 Gy 225 keV X-ray
Excerpt: as §1, with “TCI—America.” for “TCI-America.”
A human skin diploid fibroblast (GM05757 cell line) was obtained from the Coriell Cell Repository directly, while the human cervical cancer cell line (HeLa, ATCC#: CCL-2; or ME-180), human ovarian cancer cell line (NIH:OVCAR-3, ATCC#: HTB-161) and human lung cancer cell line (A549, ATCC#: CCL-185™), together with RPMI 1640, F-12K, McCoy's 5 A and L-15 culture media, were obtained from the American Type Culture Collection (ATCC) directly. Fetal bovine serum (FBS) was obtained from Hyclone Laboratories (UT, USA). The GM05757 normal cells and HeLa cells were cultivated with MEM (Hyclone) supplemented with 10% FBS, 100 units/mL penicillin G and 100 μg/mL streptomycin (Hyclone). […]

[4] = test system: various human cancer cells; assay: In vitro radiosensitizing effects in various human cancer cells (FIG. 14-21); assay type: cell-based; settings: 12 hr treatment, then various doses of 225 keV X-ray
Excerpt: as §1, with “TCI—America.” for “TCI-America.”
A human skin diploid fibroblast (GM05757 cell line) was obtained from the Coriell Cell Repository directly, while the human cervical cancer cell line (HeLa, ATCC#: CCL-2; or ME-180), human ovarian cancer cell line (NIH:OVCAR-3, ATCC#: HTB-161) and human lung cancer cell line (A549, ATCC#: CCL-185™), together with RPMI 1640, F-12K, McCoy's 5 A and L-15 culture media, were obtained from the American Type Culture Collection (ATCC) directly. Fetal bovine serum (FBS) was obtained from Hyclone Laboratories (UT, USA). The GM05757 normal cells and HeLa cells were cultivated with MEM (Hyclone) supplemented with 10% FBS, 100 units/mL penicillin G and 100 μg/mL streptomycin (Hyclone). The complete growth media for ME-180, NIH:OVCAR-3, A549 and MDA-MB-231 cells were the ATCC-formulated McCoy's 5 A Medium supplemented with 10% FBS, RPMI 1640 medium with 20%, F-12K medium with 10% FBS, and L-15 Medium (Leibovitz) with 10% FBS, respectively. The cells were maintained at 37° C. in a humidified atmosphere containing 5% CO2.
The radiosensitizing effects of RSCs on cell viability were determined by the 3-[4,5-dimethylthiazol-2-yl]-2,5-diphenyl tetrazoliumbromide (MTT) assay. Cells were cultured in 96-well plates (5×10^3 cells/well) for 24 h. The culture medium was replaced by fresh culture medium and incubated for 12 h with varying drug concentrations. The cells were then irradiated by 225 kV X-ray (PRECISION X-RAD IR 225) at a dose rate of 2 Gy/min with various X-ray doses. After irradiation, the cells were incubated for 6 days. The MTT assay of cell viability was then conducted. Briefly, 100 μl new medium without phenol red containing 1.2 mM MTT (sigma) (i.e., adding 10 μl 12 mM MTT stock solution in PBS) were added to each well and incubated for 4 h. The medium was then removed, and the formazan crystals solubilized by 100 μL/well DMSO (or alternatively by 100 μl/well SDS and incubated for another 4 h). The surviving fraction was determined by measuring the absorbance at 540 nm (570 nm for SDS solubilization) using a Multiskan Spectrum UV/Vis microplate reader (Thermo Scientific), which is directly proportional to the number of viable cells.

Nc1cc(Br)c(Br)cc1N [Compound B, 4,5-dibromo-1,2-phenylenediamine]
radiation-induced DNA double-strand breaks (DSBs) [1]: significantly enhanced; also recorded: significant enhancement of DSBs
radiation toxicity in human normal cells [2]: no radiation toxicity
enhancement of radiosensitivity of cisplatin-resistant cancer cells to X-ray [3]: significant enhancement in the radiosensitivity
killing of cancer cells in combination with radiation [4]: enhanced the killing of cancer cells in a radiation dose dependent manner and in synergy with radiation; also recorded: enhances the effectiveness of ionizing radiation to kill tumor cells

— patent publication US9655965B2, “Radiosensitizer compounds for use in combination with radiation” (priority 2013, dated 2017)
